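Values below derive from 48-hour exposures of cells grown in 96-well plates, with endpoints linearly interpolated between the two concentrations bracketing the appropriate inhibition level. The concentration for full growth arrest is given as TGI.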
What was measured:
Assay in all cases: NCI tumour cell line growth inhibition, 48 h
U251 CNS = tested on: U251 CNS
LXFL 529 NSCLC = tested on: LXFL 529 NSCLC
UACC-257 melanoma = tested on: UACC-257 melanoma
TK-10 renal = tested on: TK-10 renal
A498 renal = tested on: A498 renal
RXF 393 renal = tested on: RXF 393 renal
SK-MEL-5 melanoma = tested on: SK-MEL-5 melanoma
ACHN renal = tested on: ACHN renal
IGROV1 ovarian = tested on: IGROV1 ovarian
M14 melanoma = tested on: M14 melanoma
SNB-78 CNS = tested on: SNB-78 CNS
M19-MEL melanoma = tested on: M19-MEL melanoma
NCI-H226 lung = tested on: NCI-H226 lung
LOX IMVI melanoma = tested on: LOX IMVI melanoma
HOP-18 NSCLC = tested on: HOP-18 NSCLC
P388/ADR leukemia = tested on: P388/ADR leukemia
NCI/ADR-RES ovarian = tested on: NCI/ADR-RES ovarian
P388 leukemia = tested on: P388 leukemia
SN12K1 renal = tested on: SN12K1 renal
MCF7 breast = tested on: MCF7 breast

| Compound | TGI (U251 CNS) [µM] | TGI (LXFL 529 NSCLC) [µM] | TGI (UACC-257 melanoma) [µM] | TGI (TK-10 renal) [µM] | TGI (A498 renal) [µM] | TGI (RXF 393 renal) [µM] | TGI (SK-MEL-5 melanoma) [µM] | TGI (ACHN renal) [µM] | TGI (IGROV1 ovarian) [µM] | TGI (M14 melanoma) [µM] | TGI (SNB-78 CNS) [µM] | TGI (M19-MEL melanoma) [µM] | TGI (NCI-H226 lung) [µM] | TGI (LOX IMVI melanoma) [µM] | TGI (HOP-18 NSCLC) [µM] | TGI (P388/ADR leukemia) [µM] | TGI (NCI/ADR-RES ovarian) [µM] | TGI (P388 leukemia) [µM] | TGI (SN12K1 renal) [µM] | TGI (MCF7 breast) [µM] |
| --- | --- | --- | --- | --- | --- | --- | --- | --- | --- | --- | --- | --- | --- | --- | --- | --- | --- | --- | --- | --- |
| Cn1c(=O)c2nc(NCCO)cnc2n(C)c1=O | > 100 | > 100 | > 100 | > 100 | > 100 | 81.5 | > 100 | > 100 | > 100 | > 100 | > 100 | > 100 | – | – | – | – | – | – | – | – |
| O=C1CSC(C(N=Nc2ccc(Cl)cc2)c2nc3ccccc3[nH]2)=N1 (centres undefined) | > 100 | > 100 | > 100 | > 100 | > 100 | – | 88.4 | > 100 | – | > 100 | – | > 100 | 52 | – | – | – | – | – | – | – |
| Cc1cc2c(C(C)C)c(O)c(O)c(C=Nc3ccccc3)c2c(O)c1-c1c(C)cc2c(C(C)C)c(O)c(O)c(C=Nc3ccccc3)c2c1O | – | > 100 | – | > 100 | – | > 100 | – | > 100 | > 100 | > 100 | – | > 100 | > 100 | > 100 | – | – | – | – | – | – |
| COC(=O)C1C(O)C(C)C(O)OC1C(C)C(O)C(C)/C=C\C=C(/C)C(=O)Nc1c(C)c(OC(C)=O)c2c(c1O)C(=O)C(C)=C1OCOC(/C(C)=C/C(C)=O)=C12 (centres undefined) | 27.7 | – | 23.7 | – | 30.6 | 24.8 | 23.5 | – | 26.5 | – | 24.9 | 26 | 23.4 | 26.6 | 28.7 | 39.4 | 30.5 | 12.4 | 25.6 | 26.8 |
| CC(C)[C@](O)(C(=O)OCC1=CCN2CC[C@@H](O)[C@@H]12)[C@H](C)O | > 375 | – | > 375 | – | > 375 | > 375 | > 80.8 | – | > 375 | – | > 375 | > 256 | > 375 | > 174 | > 375 | > 375 | > 375 | > 375 | > 375 | > 375 |
| Cc1c(N=NN(C)C)cc[n+]([O-])c1C | > 100 | – | > 100 | – | > 100 | > 100 | > 100 | – | > 100 | – | > 100 | > 100 | > 100 | > 100 | > 100 | > 100 | > 100 | > 100 | > 100 | > 100 |
